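Protocol summary: plate cells (96-well), add compound at 5 concentrations, incubate 48 h, interpolate endpoints linearly. Abbreviation: GI50, concentration required for 50% inhibition of growth.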 Activity calls are given as the source filed them. No stated cut-off is given here; in the data, active = GI50 up to about 1.1 µM and inactive = higher.
Columns and labels:
Assay in all cases: NCI tumour cell line growth inhibition, 48 h
786-0 = system: 786-0
A498 = system: A498
A549 = system: A549
ACHN = system: ACHN
CAKI-1 = system: CAKI-1
CCRF-CEM = system: CCRF-CEM
COLO 205 = system: COLO 205
DU-145 = system: DU-145
EKVX = system: EKVX
HCT-116 = system: HCT-116
HCT-15 = system: HCT-15
HL-60 = system: HL-60
HOP-62 = system: HOP-62
HOP-92 = system: HOP-92
HT-29 = system: HT-29
IGROV-1 = system: IGROV-1
K562 = system: K562
KM12 = system: KM12
LOX IMVI = system: LOX IMVI
M14 = system: M14
MCF7 = system: MCF7
MDA-MB-231 = system: MDA-MB-231
MDA-MB-435 = system: MDA-MB-435
MDA-N = system: MDA-N
MOLT-4 = system: MOLT-4
Malme-3M = system: Malme-3M
NCI-H226 = system: NCI-H226
NCI-H23 = system: NCI-H23
NCI-H460 = system: NCI-H460
NCI-H522 = system: NCI-H522
NCI/ADR-RES = system: NCI/ADR-RES
OVCAR-3 = system: OVCAR-3
OVCAR-4 = system: OVCAR-4
OVCAR-5 = system: OVCAR-5
OVCAR-8 = system: OVCAR-8
PC-3 = system: PC-3
RPMI-8226 = system: RPMI-8226
RXF 393 = system: RXF 393
SF-268 = system: SF-268
SF-295 = system: SF-295
SF-539 = system: SF-539
SK-MEL-28 = system: SK-MEL-28
SK-MEL-5 = system: SK-MEL-5
SN12C = system: SN12C
SNB-19 = system: SNB-19
SNB-75 = system: SNB-75
SR = system: SR
SW-620 = system: SW-620
T47D = system: T47D
TK-10 = system: TK-10
U-251 = system: U-251
UACC-257 = system: UACC-257
UACC-62 = system: UACC-62
UO-31 = system: UO-31
HCC 2998 = system: HCC 2998
SK-OV-3 = system: SK-OV-3

In the case of `CC(O)C(CO)NC(=O)C1CSSCC(NC(=O)C(N)Cc2ccccc2)C(=O)NC(Cc2ccccc2)C(=O)NC(Cc2c[nH]c3ccccc23)C(=O)NC(CCCCN)C(=O)NC(C(C)O)C(=O)N1` (configuration not stated), the GI50 (786-0) is reported as > 100 µM (inactive), the GI50 (A498) is reported as > 100 µM (inactive) and the GI50 (A549) is reported as > 100 µM (inactive). The GI50 (ACHN) was > 100 µM (inactive), the GI50 (CAKI-1) was > 100 µM (inactive) and the GI50 (CCRF-CEM) was > 100 µM (inactive). For the same compound, the GI50 (COLO 205) was > 100 µM (inactive), the GI50 (DU-145) was > 100 µM (inactive) and the GI50 (EKVX) was > 100 µM (inactive). For the same compound, the GI50 (HCT-116) was > 100 µM (inactive), the GI50 (HCT-15) was greater than 100 µM and the GI50 (HL-60) was > 100 µM (inactive). For the same compound, the GI50 (HOP-62) was > 100 µM (inactive), the GI50 (HOP-92) was > 100 µM (inactive) and the GI50 (HT-29) was > 100 µM (inactive). The GI50 (IGROV-1) was > 100 µM (inactive), the GI50 (K562) was > 100 µM (inactive) and the GI50 (KM12) was > 100 µM (inactive). For the same compound, the GI50 (LOX IMVI) was > 100 µM (inactive), the GI50 (M14) was > 100 µM (inactive) and the GI50 (MCF7) was > 100 µM (inactive). For the same compound, the GI50 (MDA-MB-231) was > 100 µM (inactive), the GI50 (MDA-MB-435) was > 100 µM (inactive) and the GI50 (MDA-N) was > 100 µM (inactive). For the same compound, the GI50 (MOLT-4) was > 100 µM (inactive), the GI50 (Malme-3M) was > 100 µM (inactive) and the GI50 (NCI-H226) was > 100 µM (inactive). The GI50 (NCI-H23) was > 100 µM (inactive), the GI50 (NCI-H460) was > 100 µM (inactive) and the GI50 (NCI-H522) was > 100 µM (inactive). For the same compound, the GI50 (NCI/ADR-RES) was > 100 µM (inactive), the GI50 (OVCAR-3) was > 100 µM (inactive) and the GI50 (OVCAR-4) was > 100 µM (inactive). The GI50 (OVCAR-5) was > 100 µM (inactive), the GI50 (OVCAR-8) was > 100 µM (inactive) and the GI50 (PC-3) was > 100 µM (inactive). For the same compound, the GI50 (RPMI-8226) was > 100 µM (inactive), the GI50 (RXF 393) was > 100 µM (inactive) and the GI50 (SF-268) was > 100 µM (inactive). The GI50 (SF-295) was > 100 µM (inactive), the GI50 (SF-539) was > 100 µM (inactive) and the GI50 (SK-MEL-28) was > 100 µM (inactive). For the same compound, the GI50 (SK-MEL-5) was > 100 µM (inactive), the GI50 (SN12C) was > 100 µM (inactive) and the GI50 (SNB-19) was > 100 µM (inactive). For the same compound, the GI50 (SNB-75) was > 100 µM (inactive), the GI50 (SR) was > 100 µM (inactive) and the GI50 (SW-620) was > 100 µM (inactive). The GI50 (T47D) was > 100 µM (inactive), the GI50 (TK-10) was > 100 µM (inactive) and the GI50 (U-251) was > 100 µM (inactive). The GI50 (UACC-257) was > 100 µM (inactive), the GI50 (UACC-62) was > 100 µM (inactive) and the GI50 (UO-31) was > 100 µM (inactive).
In the case of `OCC1NC(CO)C(O)C1O` (configuration not stated), the GI50 (A498) is reported as > 100 µM (inactive), the GI50 (CAKI-1) is reported as > 100 µM (inactive) and the GI50 (COLO 205) is reported as > 100 µM (inactive). The GI50 (DU-145) was > 100 µM (inactive), the GI50 (HCC 2998) was > 100 µM (inactive) and the GI50 (HCT-116) was > 100 µM (inactive). The GI50 (HCT-15) was greater than 100 µM, the GI50 (HOP-92) was > 100 µM (inactive) and the GI50 (HT-29) was > 100 µM (inactive). The GI50 (IGROV-1) was > 100 µM (inactive), the GI50 (K562) was > 100 µM (inactive) and the GI50 (KM12) was > 100 µM (inactive). The GI50 (LOX IMVI) was > 100 µM (inactive), the GI50 (M14) was > 100 µM (inactive) and the GI50 (MCF7) was > 100 µM (inactive). The GI50 (MDA-MB-231) was > 100 µM (inactive), the GI50 (MDA-MB-435) was > 100 µM (inactive) and the GI50 (MOLT-4) was > 100 µM (inactive). The GI50 (Malme-3M) was > 100 µM (inactive), the GI50 (NCI-H226) was > 100 µM (inactive) and the GI50 (NCI-H23) was > 100 µM (inactive). The GI50 (NCI-H460) was > 100 µM (inactive), the GI50 (NCI/ADR-RES) was > 100 µM (inactive) and the GI50 (OVCAR-8) was > 100 µM (inactive). The GI50 (SF-295) was > 100 µM (inactive), the GI50 (SK-MEL-28) was > 100 µM (inactive) and the GI50 (SK-MEL-5) was > 100 µM (inactive). For the same compound, the GI50 (SK-OV-3) was > 100 µM (inactive), the GI50 (SNB-75) was > 100 µM (inactive) and the GI50 (T47D) was > 100 µM (inactive). For the same compound, the GI50 (TK-10) was > 100 µM (inactive), the GI50 (UACC-62) was > 100 µM (inactive) and the GI50 (UO-31) was > 100 µM (inactive).
